{
  "source": "patent US10351576B2",
  "about": "“Fused tricyclic pyrazole derivatives useful for farnesoid X receptors” (NOVARTIS AG, priority 2015, dated 2019)",
  "data": [
    {"molecular_target": "T1, human Farnesoid X Receptor (FXR) ligand binding domain (GST-FXR LBD) (Homo sapiens, UniProt Q96RI1)", "T1 construct": "purchased Invitrogen", "T1 sequence (Q96RI1 193-472 isoform Q96RI1-2)": "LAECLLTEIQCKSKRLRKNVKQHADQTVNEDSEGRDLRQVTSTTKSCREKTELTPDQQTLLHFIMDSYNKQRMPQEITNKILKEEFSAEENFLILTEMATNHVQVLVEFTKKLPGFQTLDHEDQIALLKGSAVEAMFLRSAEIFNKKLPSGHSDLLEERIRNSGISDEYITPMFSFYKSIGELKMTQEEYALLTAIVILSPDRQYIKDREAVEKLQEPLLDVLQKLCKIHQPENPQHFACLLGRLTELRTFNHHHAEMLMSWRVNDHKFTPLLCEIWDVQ", "test": "Human GST-FXR LBD co-activator interaction assay (FXR HTRF assay)", "format": "biochemical", "conditions": "ligand-dependent interaction of GST-FXR LBD with biotin-labeled SRC-1 peptide, response relative to GW4064, read-out: FXR coactivator interaction assay (HTRF)", "text": "Human GST-FXR LBD Co-Activator Interaction Assay\nThe FXR HTRF assay is a biochemical assay measuring the interaction between FXR and a coactivator protein (SRC1). The ligand-induced interaction with a coactivator protein is a critical step in transcriptional activation by FXR. Thus, this is an assay designed to measure FXR agonist activity of the test compounds.\nRecombinant human Farnesoid X Receptor (FXR) ligand binding domain (amino acids 193-472) fused to glutathione S-transferase (GST) purified protein (GST-FXR LBD) was purchased (Invitrogen). The ligand-dependent interaction between GST-FXR LBD and a peptide derived from Steroid Receptor Coactivator-1 (SRC-1) was monitored by Fluorescence Resonance Energy Transfer (FRET). […] Test compounds (in DMSO solution) and detection reagents (anti-GST-Cryptate labeled antibody and Streptavidin-XL665 conjugate; CisBio) were added in assay buffer containing 50 mM KF. Plates are incubated at room temperature in the dark for 2.5 hrs before reading on an Envision (PerkinElmer) at 665 nm and 590 nm. The HTRF assay results were calculated from the 665 nm/590 nm ratio (ratio=(A665 nm/A590 nm)×10^4) and expressed in Delta F %=(Ratiosample−Rationegative)/Rationegative×100.\nA negative control (without Streptavidin-XL665) was run with each assay and represented the background fluorescence. A reference FXR agonist, (E)-3-(2-chloro-4-((3-(2,6-dichlorophenyl)-5-isopropylisoxazol-4-yl)methoxy)styryl)benzoic acid (Compound GW4064), was included in each experiment as positive control. The efficacy of each test compound was compared to that of GW4064. At each concentration, the relative activity of the test compound was expressed as Response %=(Rsample−RDMSO)/(Rpositive−RDMSO), where Rsample is the HTRF response (expressed in Delta F %) for the test compound, Rpositive is the maximal response for GW4064 at saturating concentrations, and RDMSO is the response for DMSO control. The EC50 values were calculated using GraphPad Prism (GraphPad Software) using non-linear regression curve fit (log(agonist) vs. response—variable slope (four parameters)).", "units": {"EC50": "nM"}, "values": [
      {"compound": "Cn1nc(C(=O)N(CC(=O)NC2CCC2)Cc2ccccc2F)c2c1-c1cc(Cl)ccc1OC2", "note": "[Compound 19, 2-(1-{8-chloro-1-methyl-1H,4H-chromeno[4,3-c]pyrazol-3-yl}-N-[(2-fluorophenyl)methyl]formamido)-N-cyclobutylacetamide]", "EC50": 49},
      {"compound": "Cn1nc(C(=O)N(CCNC(=O)NCC2CC2)Cc2ccccc2F)c2c1-c1cc(Cl)ccc1OC2", "note": "[Compound 60, 8-chloro-N-(2-(3-(cyclopropylmethyl)ureido)ethyl)-N-(2-fluorobenzyl)-1-methyl-1,4-dihydrochromeno[4,3-c]pyrazole-3-carboxamide]", "EC50": 1810},
      {"compound": "Cn1nc(C(=O)N(CC(=O)NCC2CCOC2)Cc2ccccc2F)c2c1-c1cc(Cl)ccc1OC2", "note": "(stereo not shown) [Compound 7, 2-(1-{8-chloro-1-methyl-1H,4H-chromeno[4,3-c]pyrazol-3-yl}-N-[(2-fluorophenyl)methyl]formamido)-N-(oxolan-3-ylmethyl) acetamide]", "EC50": 18},
      {"compound": "Cn1nc(C(=O)N(CC(=O)NCCF)Cc2cccc(F)c2F)c2c1-c1cc(Cl)ccc1OC2", "note": "[Compound 33, 2-(1-{8-chloro-1-methyl-1H,4H-chromeno[4,3-c]pyrazol-3-yl}-N-[(2,3-difluorophenyl)methyl]formamido)-N-(2-fluoroethyl)acetamide]", "EC50": 62},
      {"compound": "Cn1nc(C(=O)N(CC(=O)NCC2CC2)Cc2nccs2)c2c1-c1cc(Cl)ccc1OC2", "note": "[Compound 81, 2-(1-{8-chloro-1-methyl-1H,4H-chromeno[4,3-c]pyrazol-3-yl}-N-(1,3-thiazol-2-ylmethyl)formamido)-N-(cyclopropylmethyl)acetamide]", "EC50": 48},
      {"compound": "Cn1nc(C(=O)N(CC(=O)NCCF)Cc2ccccc2F)c2c1-c1cc(Cl)ccc1OC2", "note": "[Compound 11, 2-(1-{8-chloro-1-methyl-1H,4H-chromeno[4,3-c]pyrazol-3-yl}-N-[(2-fluorophenyl)methyl]formamido)-N-(2-fluoroethyl)acetamide]", "EC50": 13},
      {"compound": "Cn1nc(C(=O)N(CC(=O)NC2CCC2)Cc2cccc(F)c2)c2c1-c1cc(Cl)ccc1OC2", "note": "[Compound 12, 2-(1-{8-chloro-1-methyl-1H,4H-chromeno[4,3-c]pyrazol-3-yl}-N-[(3-fluorophenyl)methyl]formamido)-N-cyclobutylacetamide]", "EC50": 14},
      {"compound": "Cn1nc(C(=O)N(CC(=O)NCCF)Cc2cccc(F)c2)c2c1-c1cc(Cl)ccc1OC2", "note": "[Compound 9, 2-(1-{8-chloro-1-methyl-1H,4H-chromeno[4,3-c]pyrazol-3-yl}-N-[(3-fluorophenyl)methyl]formamido)-N-(2-fluoroethyl)acetamide]", "EC50": 3},
      {"compound": "Cn1nc(C(=O)N(CC(=O)NC(C)(C)C)Cc2ccccc2F)c2c1-c1cc(Cl)ccc1OC2", "note": "[Compound 30, N-tert-butyl-2-(1-{8-chloro-1-methyl-1H,4H-chromeno[4,3-c]pyrazol-3-yl}-N-[(2-fluorophenyl)methyl]formamido)acetamide]", "EC50": 190},
      {"compound": "Cn1nc(C(=O)N(CC(=O)NCC(C)(O)C(F)(F)F)Cc2ccccc2F)c2c1-c1cc(Cl)ccc1OC2", "note": "(stereo not shown) [Compound 45, 2-(1-{8-chloro-1-methyl-1H,4H-chromeno[4,3-c]pyrazol-3-yl}-N-[(2-fluorophenyl)methyl]formamido)-N-(3,3,3-trifluoro-2-hydroxy-2-methylpropyl)acetamide]", "EC50": 33},
      {"compound": "CC(C)NC(=O)CN(Cc1ccccc1)C(=O)c1nn(C)c2c1COc1ccc(Br)cc1-2", "note": "[Compound 25, 2-(N-benzyl-1-{8-bromo-1-methyl-1H,4H-chromeno[4,3-c]pyrazol-3-yl}formamido)-N (propan-2-yl)acetamide]", "EC50": 32},
      {"compound": "Cn1nc(C(=O)N(CC(=O)NCCC(F)(F)F)Cc2ccccc2F)c2c1-c1cc(Cl)ccc1OC2", "note": "[Compound 4, 2-(1-{8-chloro-1-methyl-1H,4H-chromeno[4,3-c]pyrazol-3-yl}-N-[(2-fluorophenyl)methyl]formamido)-N-(3,3,3-trifluoropropyl)acetamide]", "EC50": 11},
      {"compound": "Cn1nc(C(=O)N(Cc2ccccc2)Cc2ccc(C(N)=O)cc2)c2c1-c1cc(Cl)ccc1OC2", "note": "[Compound 53, N-benzyl-N-(4-carbamoylbenzyl)-8-chloro-1-methyl-1,4-dihydrochromeno[4,3-c]pyrazole-3-carboxamide]", "EC50": 442},
      {"compound": "C[C@@H](C(=O)NCC1CC1)N(Cc1ccccc1F)C(=O)c1nn(C)c2c1COc1ccc(Cl)cc1-2", "note": "[Compound 80, (2S)-2-(1-{8-chloro-1-methyl-1H,4H-chromeno[4,3-c]pyrazol-3-yl}-N-[(2-fluorophenyl)methyl]formamido)-N-(cyclopropylmethyl)propanamide]", "EC50": 61},
      {"compound": "Cn1nccc1NC(=O)CN(Cc1ccccc1F)C(=O)c1nn(C)c2c1COc1ccc(Cl)cc1-2", "note": "[Compound 41, 2-(1-{8-chloro-1-methyl-1H,4H-chromeno[4,3-c]pyrazol-3-yl}-N-[(2-fluorophenyl)methyl]formamido)-N-(1-methyl-1H-pyrazol-5-yl)acetamide]", "EC50": 1610},
      {"compound": "CNC(=O)c1ccc(NC(=O)CN(Cc2ccccc2F)C(=O)c2nn(C)c3c2COc2ccc(Cl)cc2-3)cc1", "note": "[Compound 37, 4-[2-(1-{8-chloro-1-methyl-1H,4H-chromeno[4,3-c]pyrazol-3-yl}-N-[(2-fluorophenyl)methyl]formamido)acetamido]-N-methylbenzamide]", "EC50": 192},
      {"compound": "Cn1nc(C(=O)N(CC(=O)NCC2(O)CC2)Cc2ccccc2F)c2c1-c1cc(Cl)ccc1OC2", "note": "[Compound 48, 2-(1-{8-chloro-1-methyl-1H,4H-chromeno[4,3-c]pyrazol-3-yl}-N-[(2-fluorophenyl)methyl]formamido)-N-[(1-hydroxycyclopropyl)methyl]acetamide]", "EC50": 75},
      {"compound": "CC(C)C(=O)NCCN(Cc1ccccc1)C(=O)c1nn(C)c2c1COc1ccc(Br)cc1-2", "note": "[Compound 68, N-[2-(N-benzyl-1-{8-bromo-1-methyl-1H,4H-chromeno[4,3-c]pyrazol-3-yl}formamido)ethyl]-2-methylpropanamide]", "EC50": 22},
      {"compound": "Cn1nc(C(=O)N(CC(=O)NCC2CC2)Cc2ccccc2F)c2c1-c1cc(Br)ccc1OC2(C)C", "note": "[Compound 78, 2-(1-{8-bromo-1,4,4-trimethyl-1H,4H-chromeno[4,3-c]pyrazol-3-yl}-N-[(2-fluorophenyl)methyl]formamido)-N-(cyclopropylmethyl)acetamide]", "EC50": 2230},
      {"compound": "Cn1nc(C(=O)N(CC(=O)NCC(O)C(F)(F)F)Cc2ccccc2F)c2c1-c1cc(Cl)ccc1OC2", "note": "(stereo not shown) [Compound 44, 8-chloro-N-(2-fluorobenzyl)-1-methyl-N-(2-oxo-2-((3,3,3-trifluoro-2-hydroxypropyl)amino)ethyl)-1,4-dihydrochromeno[4,3-c]pyrazole-3-carboxamide]", "EC50": 8},
      {"compound": "Cn1nc(C(=O)N(CC(=O)NCC2CC2)CC2CCCCC2)c2c1-c1cc(Cl)ccc1OC2", "note": "[Compound 74, 2-(1-{8-chloro-1-methyl-1H,4H-chromeno[4,3-c]pyrazol-3-yl}-N-(cyclohexylmethyl)formamido)-N-(cyclopropylmethyl)acetamide]", "EC50": 96},
      {"compound": "Cn1nc(C(=O)N(CC(=O)NCC2CC2)CC2CCOCC2)c2c1-c1cc(Cl)ccc1OC2", "note": "[Compound 40, 2-(1-{8-chloro-1-methyl-1H,4H-chromeno[4,3-c]pyrazol-3-yl}-N-(oxan-4-ylmethyl)formamido)-N-(cyclopropylmethyl)acetamide]", "EC50": 608},
      {"compound": "Cn1nc(C(=O)N(CC(=O)NCC(C)(C)O)Cc2ccccc2F)c2c1-c1cc(Cl)ccc1OC2", "note": "[Compound 46, 2-(1-{8-chloro-1-methyl-1H,4H-chromeno[4,3-c]pyrazol-3-yl}-N-[(2-fluorophenyl)methyl]formamido)-N-(2-hydroxy-2-methylpropyl)acetamide]", "EC50": 19},
      {"compound": "CC(C)S(=O)(=O)NCCN(Cc1ccccc1)C(=O)c1nn(C)c2c1COc1ccc(Br)cc1-2", "note": "[Compound 64, N-benzyl-8-bromo-1-methyl-N-[2-(propane-2-sulfonamido)ethyl]-1H,4H-chromeno[4,3-c]pyrazole-3-carboxamide]", "EC50": 695},
      {"compound": "CNC(=O)CN(Cc1ccccc1)C(=O)c1nn(C)c2c1COc1ccc(Br)cc1-2", "note": "[Compound 34, 2-(N-benzyl-1-{8-bromo-1-methyl-1H,4H-chromeno[4,3-c]pyrazol-3-yl}formamido)-N methylacetamide]", "EC50": 193}
    ]}
  ]
}
